Patent publication US20230399314A1, “CD73 INHIBITOR AND USE THEREOF” (WUHAN HUMANWELL INNOVATIVE DRUG RESEARCH AND DEVELOPMENT …, priority 2020, published 2023)

What was measured:
[1] = Pharmacokinetic test on mice; assay type: in vivo, male ICR mice; details: for Vd: read-out: Vz; for pharmacokinetic properties compared to the reference compounds: mice
Experimental: (§1) In a pharmacokinetic test on mice, male ICR mice of 20 g to 25 g were used and fasted overnight. 3 mice were selected for orally intragastric administration (10 mg/kg). Before administration, and 15 min, 30 min, 1 h, 2 h, 4 h, 8 h, and 24 h after administration, blood was sampled from each mouse. Another 3 mice were selected for intravenous injection administration (3 mg/kg), and before administration, and 15 min, 30 min, 1 h, 2 h, 4 h, 8 h, and 24 h after administration, blood was sampled from each mouse. The blood sample was centrifuged at 6,800 g and 2 to 8° C. for 6 min, and plasma was collected and stored at −80° C. The plasma of each time point was vortex-mixed for 1 min with an acetonitrile solution containing the internal standard with a volume 3-5 times that of the plasma of each time point, and centrifuged at 13,000 rpm and 4° C. for 10 min, a supernatant was collected and mixed with water with a volume 3 times that of the supernatant, and an appropriate amount of the mixed solution was used for LC-MS/MS analysis. The main pharmacokinetic parameters were analyzed by using a WinNonlin 7.0 non-compartmental model.

[2] = system: Human CD4+ T cells; assay: Relieving AMP-induced proliferation inhibition of human CD4+ T cells (CCK8); assay type: cell-based; details: AMP 0.3 mM, day 5
Experimental: On day 1 of the experiment, CD4^+ T cells (Allcells Shanghai, PB009-2F-C) were thawed, and inoculated into two replicate wells according to 3×10^4 cells/well and 50 μL/well. The compound was diluted with a complete medium to form a stock solution (4×) of an appropriate concentration gradient, the compound solution was added to the above cells according to 50 μL/well, and the mixture was pre-incubated at 37° C. for 30 min. […] Meanwhile, a positive reference group (Human CD4^+ T+IL-2+CD3/CD28 beads) and a negative reference group (Human CD4^+ T+IL-2+CD3/CD28 beads+AMP) were set. AMP (Sigma; A1752-5G) was diluted with a complete medium to form an AMP solution (4×), the AMP solution was added to the above cells according to 50 μL/well, the final concentration was 0.3 mM, and the mixture was incubated at 37° C. On day 3 of the experiment, the AMP solution was added to the above plate according to 20 μL/well, and the final concentration was 0.3 mM. On day 5, the proliferation of the cells was detected by using a CCK8 kit (DojinDO; CK04).
Inhibition rates of the compound at different concentrations in relieving AMP-induced proliferation inhibition of CD4^+ T cells were calculated according to the following formula, the concentration of the compound was taken as the X-axis, the inhibition rate was taken as the Y-axis, and an EC50 value of the compound in relieving the AMP-induced proliferation inhibition of CD4^+ T cells was calculated by using Prism software.

[3] = target: CD73 bound to the surfaces of A375 cells (Homo sapiens (Human), UniProt P21589); assay: Inhibitory activity to CD73 enzyme bound to the surfaces of human melanoma A375 cells; assay type: cell-based; details: AMP 200 μM, 16 h
Experimental: The compound was diluted with serum-free DMEM to form a stock solution (5×) of an appropriate concentration gradient, the compound solution was added to the cells in the above 96-well plate according to 20 μL/well, and the mixture was placed in an incubator and pre-incubated for 30 min.
(§2) A375-bound CD73 inhibition rates of the compound at different concentrations were calculated according to the following formula, the concentration of the compound was taken as the X-axis, the inhibition rate was taken as the Y-axis, and an IC50 value of the compound in inhibiting A375-bound CD73 was calculated by using Prism software.

[4] = target: Human-CD73 enzyme (Homo sapiens (Human), UniProt P21589); assay: In vitro inhibitory activity to recombinant human CD73 enzyme (ATP-GLO); assay type: biochemical; details: Human-CD73 0.1 μg/mL, AMP 100 μM
Experimental: Human-CD73 (Novoprotein; C446) was diluted with Tris-MgCl2 buffer to form a stock solution (3×), which was placed in a 96-well plate according to 20 μL/well to obtain a final concentration of 0.1 μg/mL. The compound was diluted with Tris-MgCl2 buffer to form a stock solution (3×) of an appropriate concentration gradient, the compound solution was added to the above 96-well plate according to 20 μL/well and uniformly mixed with the Human-CD73 solution, and the mixture was incubated at the room temperature for 30 min. Meanwhile, a positive reference group (without the compound) and a negative reference group (without CD73) were set. AMP (Sigma; A1752-5G) was diluted with Tris-MgCl2 buffer to form a stock solution (3×), which was added to the above 96-well plate according to 20 μL/well to obtain a final concentration of 100 μM, and the mixture was uniformly mixed and incubated at 37° C. for 60 min; ATP (Sigma; A7699-1G) was diluted with Tris-MgCl2 buffer to form a stock solution (7×), which was added to the above 96-well plate according to 10 μL/well to obtain a final concentration of 100 μM, and the mixture was uniformly mixed, incubated for 5 min, and tested by using an ATP-GLO kit (Promega; G7573).
as §2, with “Human-CD73” for “A375-bound CD73”

[5] = Pharmacokinetic test on dogs; assay type: in vivo, male Beagle dogs; details: for exposure compared to the reference compounds: dogs; for AUC(0-t) / Cmax / Tmax / half-life / clearance / Vd: male, Beagle, plasma, dog; for Vd: read-out: Vz
Experimental: as §1
In a pharmacokinetic test on dogs, male Beagle dogs of 8 to 10 kg were used and fasted overnight. 3 Beagle dogs were selected for orally intragastric administration (5 mg/kg). Another 3 Beagle dogs were selected for intravenous injection administration (1 mg/kg). Other operations were the same as the pharmacokinetic test on mice.

[6] = system: A375 melanoma; assay: In vivo efficacy on A375 melanoma (PBMC + A375 cells in NCG mice); details: anti PD-1 10 mg/kg alone
Experimental: A375 cells in logarithmic growth phase were collected, cultured in Mitomycin C for 2 h, and washed three times with PBS. After 5 days of co-culture of PBMC and A375 cells, PBMC and freshly digested A375 cells were collected, 5×10^5 PBMC and 4×10^6 A375 cells were inoculated subcutaneously on the right side of NCG mice according to 0.2 mL/mouse (containing 50% Matrigel). After inoculation, the mice were randomly divided into a model group and an administration group according to body weight of the mice, tumor size and animal weight were measured and recorded before and during administration, and tumor sizes of the model group and the administration group were compared after treatment to determine the efficacy.

[7] = male, ICR, plasma, po, mouse, orally intragastric 10 mg/kg
[8] = male, ICR, plasma, po, mouse, orally intragastric 10 mg/kg, read-out: AUC0-t
[9] = male, ICR, plasma, po, mouse, orally intragastric 10 mg/kg, read-out: Cmax
[10] = male, ICR, plasma, po, mouse, orally intragastric 10 mg/kg, read-out: Tmax
[11] = male, ICR, plasma, mouse, intravenous injection 3 mg/kg
[12] = male, ICR, plasma, mouse, intravenous injection 3 mg/kg, read-out: AUC0-t
[13] = po, orally intragastric 5 mg/kg
[14] = mouse, orally intragastric 10 mg/kg

Human-CD73 enzyme, sequence (P21589 27-574): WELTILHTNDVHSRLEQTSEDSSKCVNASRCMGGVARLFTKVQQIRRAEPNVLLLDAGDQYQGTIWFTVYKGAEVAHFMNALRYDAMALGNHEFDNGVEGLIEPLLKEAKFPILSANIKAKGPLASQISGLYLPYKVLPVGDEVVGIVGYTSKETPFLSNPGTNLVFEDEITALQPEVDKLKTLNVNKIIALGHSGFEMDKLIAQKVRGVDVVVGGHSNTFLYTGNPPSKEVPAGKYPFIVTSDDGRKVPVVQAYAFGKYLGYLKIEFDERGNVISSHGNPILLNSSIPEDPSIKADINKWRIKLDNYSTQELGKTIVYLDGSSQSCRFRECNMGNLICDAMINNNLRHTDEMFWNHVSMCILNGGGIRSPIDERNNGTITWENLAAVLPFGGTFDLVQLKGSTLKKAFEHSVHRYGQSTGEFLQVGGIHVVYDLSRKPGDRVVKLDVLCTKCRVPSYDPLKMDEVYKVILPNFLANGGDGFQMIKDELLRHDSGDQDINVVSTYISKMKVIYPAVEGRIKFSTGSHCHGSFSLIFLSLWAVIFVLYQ
CD73 bound to the surfaces of A375 cells, sequence (P21589 27-574): as above

| half-life [1, 7] | AUC(0-t) [1, 8] | Cmax [1, 9] | Tmax [1, 10] | clearance [1, 11] | half-life [1, 11] | AUC(0-t) [1, 12] | Vd [1, 11] | pharmacokinetic properties compared to the reference compounds [1] | IC50 [3] | IC50 [4] | Compound | EC50 ([2]; Homo sapiens, 120 h) | further results |
| --- | --- | --- | --- | --- | --- | --- | --- | --- | --- | --- | --- | --- | --- |
| 2.7 h | 107000 ng·h/mL | 12100 ng/mL | 0.83 h | 3.67 mL/min/kg | 3.72 h | 13800 ng·h/mL | 1.17 L/kg | significantly improved | 26.8 nM | – | O=c1[nH]cc(-c2cc([C@H]3C[C@@H]3C(F)(F)F)c(Cl)nn2)c(=O)[nH]1 [Compound 3, 5-(6-chloro-5-((1S,2S)-2-(trifluoromethyl)cyclopropyl)pyridazin-3-yl)pyrimidine-2,4(1H,3H)-dione] | 111 nM | – |
| 2.85 h | 185000 ng·h/mL | 16100 ng/mL | 3 h | 3.33 mL/min/kg | 3.68 h | 15200 ng·h/mL | 1.05 L/kg | significantly improved | 134 nM | 58.4 nM | O=c1[nH]cc(-c2cc([C@@H]3C[C@H]3C(F)(F)F)c(Cl)nn2)c(=O)[nH]1 [Compound 4, 5-(6-chloro-5-((1R,2R)-2-(trifluoromethyl)cyclopropyl)pyridazin-3-yl)pyrimidine-2,4(1H,3H)-dione] | 1070 nM | exposure compared to the reference compounds [5]: much higher; AUC(0-t) [5, 13]: 65700 ng·h/mL; Cmax [5, 13]: 7550 ng/mL; Tmax [5, 13]: 1.17 h; half-life [5, 13]: 4.13 h; AUC(0-t) ([5]; intravenous injection 1 mg/kg): 5810 ng·h/mL; clearance ([5]; intravenous injection 1 mg/kg): 3 mL/min/kg; half-life ([5]; intravenous injection 1 mg/kg): 3.63 h; Vd ([5]; intravenous injection 1 mg/kg): 0.95 L/kg |
| – | – | – | – | – | – | – | – | – | 54.9 nM | 32.1 nM | Cc1nnc(-c2c[nH]c(=O)[nH]c2=O)cc1[C@H]1C[C@@H]1C(F)(F)F [Compound 7, 5-(6-methyl-5-((1S,2S)-2-(trifluoromethyl)cyclopropyl)pyridazin-3-yl)pyrimidine-2,4(1H,3H)-dione] | – | – |
| – | – | – | – | – | – | – | – | significantly improved | 5.56 nM | 8.17 nM | O=c1[nH]cc(-c2cc([C@H]3C[C@@H]3CC(F)(F)F)c(Cl)nn2)c(=O)[nH]1 [Compound 9, 5-(6-chloro-5-((1S,2R)-2-(2,2,2-trifluoroethyl)cyclopropyl)pyridazin-3-yl)pyrimidine-2,4(1H,3H)-dione] | – | AUC(0-t) [1, 14]: 65441 ng·h/mL; Cmax [1, 14]: 6601.90 ng/mL; T1/2 [1, 14]: 4.87 h; Tmax [1, 14]: 1.17 h; EC50 [2]: 32.6 nM |
| 3.06 h | 36200 ng·h/mL | 5530 ng/mL | 0.67 h | 7.83 mL/min/kg | 3.72 h | 6950 ng·h/mL | 2.57 L/kg | significantly improved | – | – | O=c1[nH]cc(-c2cc([C@H]3C[C@@H]3COC(F)(F)F)c(Cl)nn2)c(=O)[nH]1 [Compound 11, 5-(6-chloro-5-((1S,2S)-2-((trifluoromethoxy)methyl)cyclopropyl)pyridazin-3-yl)pyrimidine-2,4(1H,3H)-dione] | 169 nM | exposure compared to the reference compounds [5]: much higher; AUC(0-t) [5, 13]: 16600 ng·h/mL; Cmax [5, 13]: 5710 ng/mL; Tmax [5, 13]: 0.83 h; half-life [5, 13]: 2.27 h; AUC(0-t) ([5]; intravenous injection 1 mg/kg): 2100 ng·h/mL; clearance ([5]; intravenous injection 1 mg/kg): 8.83 mL/min/kg; half-life ([5]; intravenous injection 1 mg/kg): 0.89 h; Vd ([5]; intravenous injection 1 mg/kg): 0.66 L/kg |
| 1.43 h | 9800 ng·h/mL | 4410 ng/mL | 0.42 h | 10.3 mL/min/kg | 1.82 h | 5070 ng·h/mL | 1.5 L/kg | – | 17.6 nM | – | O=c1[nH]cc(-c2cc([C@H]3C[C@@H]3CC(F)F)c(Cl)nn2)c(=O)[nH]1 [Compound 18, 5-(6-chloro-5-((1S,2R)-2-(2,2-difluoroethyl)cyclopropyl)pyridazin-3-yl)pyrimidine-2,4(1H,3H)-dione] | – | – |
| 1.17 h | 821 ng·h/mL | 1150 ng/mL | 0.25 h | 85.2 mL/min/kg | 1.99 h | 585 ng·h/mL | 14.7 L/kg | – | 247 nM | 12.5 nM | Cc1nnc(-c2c[nH]c(=O)[nH]c2=O)cc1[C@H]1C[C@@H]1C(F)F [Reference compound 1, 5-(5-((1S,2S)-2-(difluoromethyl)cyclopropyl)-6-methylpyridazin-3-yl)pyrimidine-2,4(1H,3H)-dione, reference compound] | – | – |
| – | – | – | – | – | – | – | – | – | – | – | Toripalimab [anti PD-1] | – | % TGI [6]: 25.08%; Mean ± SEM (tumor size) ([6]; in mm³ (unit assumed)): 1472 ± 194.9 |
